# Assay results taken from PubChem BioAssay AID248 (DTP/NCI, 2004).
# “And” between values parts separate entries of the source, which are not always exact repeats. Equal values may be shown once. Toxic doses and inconclusive results are not listed.
# System: L1210 leukemia ip in BDF1 mice, survival T/C
# Test: NCI In Vivo Anticancer Drug Screen. Data for tumor model L1210 Leukemia (intraperitoneal) in B6D2F1 (BDF1) mice
# Details: endpoint: mean survival time, higher = longer survival
# How it was run: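 Tumor cells were implanted, animals were treated, and survival was followed. The result divides the treated measurement by the vehicle-control measurement.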
# [1] = dose: 100.0 mg/kg/injection, schedule: Q04DX002 (ip), vehicle: saline with Tween-80
# [2] = dose: 200.0 mg/kg/injection, schedule: Q04DX002 (ip), vehicle: saline with Tween-80
# [3] = dose: 400.0 mg/kg/injection, schedule: Q04DX002 (ip), vehicle: saline with Tween-80
# [4] = dose: 100.0 mg/kg/injection, schedule: Q01DX001 (ip), vehicle: saline
# [5] = dose: 200.0 mg/kg/injection, schedule: Q01DX001 (ip), vehicle: saline
# [6] = dose: 400.0 mg/kg/injection, schedule: Q01DX001 (ip), vehicle: saline
# [7] = dose: 100.0 mg/kg/injection, schedule: Q04DX003 (ip), vehicle: saline
# [8] = dose: 200.0 mg/kg/injection, schedule: Q04DX003 (ip), vehicle: saline
# [9] = dose: 400.0 mg/kg/injection, schedule: Q04DX003 (ip), vehicle: saline
# [10] = dose: 100.0 mg/kg/injection, schedule: Q04DX002 (ip), vehicle: saline
# [11] = dose: 200.0 mg/kg/injection, schedule: Q04DX002 (ip), vehicle: saline
# [12] = dose: 400.0 mg/kg/injection, schedule: Q04DX002 (ip), vehicle: saline
# [13] = dose: 100.0 mg/kg/injection, schedule: Q01DX009 (ip), vehicle: saline with Tween-80
# [14] = dose: 200.0 mg/kg/injection, schedule: Q01DX009 (ip), vehicle: saline with Tween-80
# [15] = dose: 25.0 mg/kg/injection, schedule: Q01DX009 (ip), vehicle: saline
structure (smiles),measurement,setting,value
CCC(Cl)COP(=O)(OCC(Cl)CC)O/C(C)=C(/C)P(=O)(OCC(Cl)CC)OCC(Cl)CC (centres undefined),T/C,[1],104 % of control
same,T/C,[2],96 % of control
same,T/C,[3],100 % of control
CC(=O)OCC/C(=C/c1cc2ccccc2c2ccccc12)[N+](=O)[O-],T/C,[4],100 % of control
same,T/C,[5],105 % of control
same,T/C,[6],113 % of control
O=c1oc2ccc(O)cc2c2ccccc12,T/C,[7],105 % of control
same,T/C,[8],97 % of control
same,T/C,[9],103 % of control
COc1ccccc1NC(=O)Oc1ccc(Br)cc1Br,T/C,[4],95 % of control
same,T/C,"dose: 100.0 mg/kg/injection, schedule: Q01DX009 (ip), vehicle: saline",102 % of control and 106 % of control
same,T/C,[10],105 % of control and 109 % of control
same,T/C,[7],93 % of control
same,T/C,[5],101 % of control
same,T/C,"dose: 200.0 mg/kg/injection, schedule: Q01DX009 (ip), vehicle: saline",103 % of control and 110 % of control
same,T/C,[11],105 % of control and 109 % of control
same,T/C,[8],95 % of control
same,T/C,[6],123 % of control
same,T/C,"dose: 400.0 mg/kg/injection, schedule: Q01DX009 (ip), vehicle: saline",103 % of control and 109 % of control
same,T/C,[12],107 % of control and 88 % of control
same,T/C,[9],101 % of control
N#Cc1ncn(C2OC(CO)C(O)C2O)c1N (centres undefined),T/C,"dose: 100.0 mg/kg/injection, schedule: Q01DX005 (ip), vehicle: saline",103 % of control
same,T/C,"dose: 200.0 mg/kg/injection, schedule: Q01DX005 (ip), vehicle: saline",96 % of control
CC12CCCCC1=CC(OC(=O)c1ccc([N+](=O)[O-])cc1)CC2 (centres undefined),T/C,"dose: 50.0 mg/kg/injection, schedule: Q01DX009 (ip), vehicle: saline with Tween-80",94 % of control
same,T/C,[13],98 % of control
same,T/C,[14],94 % of control
Cn1cnc([N+](=O)[O-])c1[Se]c1nc(N)nc2c1ncn2C1CC(O)C(CO)O1 (centres undefined),T/C,"dose: 16.5 mg/kg/injection, schedule: Q01DX005 (ip), vehicle: saline",159 % of control
same,T/C,"dose: 25.0 mg/kg/injection, schedule: Q01DX005 (ip), vehicle: saline",202 % of control
same,T/C,[15],150 % of control
same,T/C,"dose: 37.5 mg/kg/injection, schedule: Q01DX005 (ip), vehicle: saline",219 % of control
same,T/C,"dose: 37.5 mg/kg/injection, schedule: Q01DX009 (ip), vehicle: saline",158 % of control
same,T/C,"dose: 50.0 mg/kg/injection, schedule: Q01DX005 (ip), vehicle: saline",98 % of control
same,T/C,"dose: 62.5 mg/kg/injection, schedule: Q01DX005 (ip), vehicle: saline",117 % of control
same,T/C,"dose: 62.5 mg/kg/injection, schedule: Q01DX009 (ip), vehicle: saline",105 % of control
FC1(F)SC2CCCC2C1(F)F (centres undefined),T/C,"dose: 3.13 mg/kg/injection, schedule: Q01DX009 (ip), vehicle: saline with Tween-80",95 % of control
same,T/C,"dose: 6.25 mg/kg/injection, schedule: Q01DX009 (ip), vehicle: saline with Tween-80",106 % of control
same,T/C,"dose: 12.5 mg/kg/injection, schedule: Q01DX009 (ip), vehicle: saline with Tween-80",95 % of control and 101 % of control
same,T/C,"dose: 12.5 mg/kg/injection, schedule: Q04DX003 (ip), vehicle: saline with Tween-80",101 % of control
same,T/C,"dose: 25.0 mg/kg/injection, schedule: Q04DX003 (ip), vehicle: saline with Tween-80",104 % of control
same,T/C,"dose: 50.0 mg/kg/injection, schedule: Q04DX003 (ip), vehicle: saline with Tween-80",95 % of control
CCCCCCCC(=O)c1ccc(O)cc1,T/C,"dose: 100.0 mg/kg/injection, schedule: Q04DX003 (ip), vehicle: saline with Tween-80",109 % of control
same,T/C,"dose: 200.0 mg/kg/injection, schedule: Q04DX003 (ip), vehicle: saline with Tween-80",100 % of control
same,T/C,"dose: 400.0 mg/kg/injection, schedule: Q04DX003 (ip), vehicle: saline with Tween-80",103 % of control
O=C1C=CC(=O)C(SCCSC2=CC(=O)C(SCCSC3=CC(=O)C=CC3=O)=CC2=O)=C1,T/C,[4],98 % of control
same,T/C,[5],101 % of control
same,T/C,[6],95 % of control
Nc1ncnc2c1c(I)cn2C1OC(CO)C(O)C1O (centres undefined),T/C,"dose: 5.0 mg/kg/injection, schedule: Q01DX001 (ip), vehicle: saline",102 % of control
same,T/C,"dose: 10.0 mg/kg/injection, schedule: Q01DX001 (ip), vehicle: saline",101 % of control
same,T/C,"dose: 20.0 mg/kg/injection, schedule: Q01DX001 (ip), vehicle: saline",103 % of control
same,T/C,"dose: 40.0 mg/kg/injection, schedule: Q01DX001 (ip), vehicle: saline",105 % of control
Cc1ccc(S(=O)(=O)OCCC2=CCC3CC2C3(C)C)cc1 (centres undefined),T/C,[10],103 % of control
same,T/C,[11],95 % of control
same,T/C,[12],95 % of control
Cc1[nH]nc(C(N)=O)c1N=NN(C)C,T/C,"dose: 12.5 mg/kg/injection, schedule: Q01DX009 (ip), vehicle: saline",108 % of control
same,T/C,"dose: 25.0 mg/kg/injection, schedule: Q01DX001 (ip), vehicle: saline",121 % of control
same,T/C,[15],124 % of control
same,T/C,"dose: 50.0 mg/kg/injection, schedule: Q01DX009 (ip), vehicle: saline",183 % of control
same,T/C,"dose: 75.0 mg/kg/injection, schedule: Q01DX001 (ip), vehicle: saline",112 % of control and 124 % of control
same,T/C,"dose: 75.0 mg/kg/injection, schedule: Q01DX009 (ip), vehicle: saline",204 % of control
same,T/C,"dose: 150.0 mg/kg/injection, schedule: Q01DX001 (ip), vehicle: saline",104 % of control and 216 % of control
same,T/C,"dose: 150.0 mg/kg/injection, schedule: Q01DX009 (ip), vehicle: saline",186 % of control
COc1ccccc1/C=C1\SC(=O)N(CCNC(C)=O)C1=O,T/C,[4],98 % of control
same,T/C,[5],100 % of control
same,T/C,[6],96 % of control
CCS(=O)(=O)CCOC(=O)c1ccc([N+](=O)[O-])cc1,T/C,"dose: 100.0 mg/kg/injection, schedule: Q01DX001 (ip), vehicle: carboxymethylcellulose (CMC)",100 % of control
same,T/C,"dose: 200.0 mg/kg/injection, schedule: Q01DX001 (ip), vehicle: carboxymethylcellulose (CMC)",105 % of control
same,T/C,"dose: 400.0 mg/kg/injection, schedule: Q01DX001 (ip), vehicle: carboxymethylcellulose (CMC)",98 % of control
O=C1CN(CCN2CC(=O)NC2=S)C(=S)N1,T/C,[1],95 % of control
same,T/C,[2],100 % of control
O=C1Cc2cc3c(cc2C=C2CCCN12)OCO3,T/C,"dose: 50.0 mg/kg/injection, schedule: Q01DX001 (ip), vehicle: Klucel (hydroxypropylcellulose) (HPC)",103 % of control
same,T/C,"dose: 100.0 mg/kg/injection, schedule: Q01DX001 (ip), vehicle: Klucel (hydroxypropylcellulose) (HPC)",97 % of control
same,T/C,"dose: 200.0 mg/kg/injection, schedule: Q01DX001 (ip), vehicle: Klucel (hydroxypropylcellulose) (HPC)",101 % of control
NC(N)=N/N=C/c1ccc(C(=O)O)cc1,T/C,"dose: 15.0 mg/kg/injection, schedule: Q01DX Z (ip), vehicle: saline",103 % of control
same,T/C,"dose: 30.0 mg/kg/injection, schedule: Q01DX Z (ip), vehicle: saline",104 % of control
same,T/C,"dose: 60.0 mg/kg/injection, schedule: Q01DX Z (ip), vehicle: saline",106 % of control
same,T/C,"dose: 120.0 mg/kg/injection, schedule: Q01DX Z (ip), vehicle: saline",110 % of control
same,T/C,"dose: 120.0 mg/kg/injection, schedule: Q01DX Z (oral), vehicle: saline",92 % of control
same,T/C,"dose: 240.0 mg/kg/injection, schedule: Q01DX Z (ip), vehicle: saline",87 % of control
same,T/C,"dose: 240.0 mg/kg/injection, schedule: Q01DX Z (oral), vehicle: saline",90 % of control
same,T/C,"dose: 480.0 mg/kg/injection, schedule: Q01DX Z (oral), vehicle: saline",101 % of control
same,T/C,"dose: 960.0 mg/kg/injection, schedule: Q01DX Z (oral), vehicle: saline",92 % of control
CC(=O)NC(Cc1ccccc1)C(=O)O (centres undefined),T/C,"dose: 50.0 mg/kg/injection, schedule: Q04DX003 (ip), vehicle: Klucel (hydroxypropylcellulose) (HPC)",94 % of control
same,T/C,"dose: 100.0 mg/kg/injection, schedule: Q04DX003 (ip), vehicle: Klucel (hydroxypropylcellulose) (HPC)",103 % of control
same,T/C,"dose: 200.0 mg/kg/injection, schedule: Q04DX003 (ip), vehicle: Klucel (hydroxypropylcellulose) (HPC)",100 % of control
O=C(O)C1CCC(SSC2CCC(C(=O)O)CC2[N+](=O)[O-])C([N+](=O)[O-])C1 (centres undefined),T/C,[1],95 % of control
same,T/C,[2],103 % of control
same,T/C,[3],103 % of control
C=CN1CCCC1=O (tested in a mixture with another compound),T/C,[4],101 % of control [middle of 4 runs]
same,T/C,[13],92 % of control and 97 % of control
same,T/C,[5],101 % of control [middle of 4 runs]
same,T/C,[14],93 % of control and 100 % of control
same,T/C,[6],101 % of control and 89 % of control and 98 % of control
same,T/C,"dose: 400.0 mg/kg/injection, schedule: Q01DX009 (ip), vehicle: saline with Tween-80",93 % of control and 96 % of control
CCCCCCCCCCCCCCCC(=O)N(CCCN)CCCN(CCCN)C(=O)CCCCCCCCCCCCCCC,T/C,[7],98 % of control
